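Five concentrations, 48 hours, 96-well plates. The concentration for 50% growth inhibition is given as GI50. TGI: total growth inhibition.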
Columns and labels:
Assay in all cases: NCI-60 cell line screen, 48 h
786-0 renal = system: 786-0 renal
A498 renal = system: A498 renal
A549 NSCLC = system: A549 NSCLC
ACHN renal = system: ACHN renal
CAKI-1 renal = system: CAKI-1 renal
CCRF-CEM leukemia = system: CCRF-CEM leukemia
COLO 205 colon = system: COLO 205 colon
DLD-1 colon = system: DLD-1 colon
DMS 114 small cell lung = system: DMS 114 small cell lung
DMS 273 small cell lung = system: DMS 273 small cell lung
EKVX NSCLC = system: EKVX NSCLC
HCC-2998 colon = system: HCC-2998 colon
HCT-116 colon = system: HCT-116 colon
HCT-15 colon = system: HCT-15 colon
HL-60(TB) leukemia = system: HL-60(TB) leukemia
HOP-62 NSCLC = system: HOP-62 NSCLC
HOP-92 NSCLC = system: HOP-92 NSCLC
HT29 colon = system: HT29 colon
IGROV1 ovarian = system: IGROV1 ovarian
K-562 leukemia = system: K-562 leukemia
KM12 colon = system: KM12 colon
KM20L2 colon = system: KM20L2 colon
LOX IMVI melanoma = system: LOX IMVI melanoma
LXFL 529 NSCLC = system: LXFL 529 NSCLC
M14 melanoma = system: M14 melanoma
M19-MEL melanoma = system: M19-MEL melanoma
MALME-3M melanoma = system: MALME-3M melanoma
MOLT-4 leukemia = system: MOLT-4 leukemia
NCI-H226 lung = system: NCI-H226 lung
NCI-H23 lung = system: NCI-H23 lung
NCI-H460 lung = system: NCI-H460 lung
NCI-H522 lung = system: NCI-H522 lung
OVCAR-3 ovarian = system: OVCAR-3 ovarian
OVCAR-4 ovarian = system: OVCAR-4 ovarian
OVCAR-5 ovarian = system: OVCAR-5 ovarian
OVCAR-8 ovarian = system: OVCAR-8 ovarian
RPMI-8226 leukemia = system: RPMI-8226 leukemia
RXF 393 renal = system: RXF 393 renal
RXF-631 renal = system: RXF-631 renal
SF-295 CNS = system: SF-295 CNS
SF-539 CNS = system: SF-539 CNS
SK-MEL-2 melanoma = system: SK-MEL-2 melanoma
SK-MEL-28 melanoma = system: SK-MEL-28 melanoma
SK-MEL-5 melanoma = system: SK-MEL-5 melanoma
SK-OV-3 ovarian = system: SK-OV-3 ovarian
SN12C renal = system: SN12C renal
SNB-19 CNS = system: SNB-19 CNS
SNB-75 CNS = system: SNB-75 CNS
SNB-78 CNS = system: SNB-78 CNS
SR leukemia = system: SR leukemia
SW-620 colon = system: SW-620 colon
TK-10 renal = system: TK-10 renal
U251 CNS = system: U251 CNS
UACC-257 melanoma = system: UACC-257 melanoma
UACC-62 melanoma = system: UACC-62 melanoma
UO-31 renal = system: UO-31 renal
XF 498 CNS = system: XF 498 CNS

CCC[CH2][Sn]1([CH2]CCC)[O]CC(c2ccccn2)C[O]1
GI50 (786-0 renal): 15.6 µM
TGI (786-0 renal): 29.3 µM
GI50 (A498 renal): 26.7 µM
TGI (A498 renal): 50.7 µM
GI50 (A549 NSCLC): 32.1 µM
TGI (A549 NSCLC): > 100 µM
GI50 (ACHN renal): 19.8 µM
TGI (ACHN renal): 34 µM
GI50 (CAKI-1 renal): 7.39 µM
TGI (CAKI-1 renal): 22.1 µM
GI50 (CCRF-CEM leukemia): 4.13 µM
TGI (CCRF-CEM leukemia): 34.8 µM
GI50 (COLO 205 colon): 17.5 µM
TGI (COLO 205 colon): 31.7 µM
GI50 (DLD-1 colon): 15.3 µM
TGI (DLD-1 colon): 29.8 µM
GI50 (DMS 114 small cell lung): 10.2 µM
TGI (DMS 114 small cell lung): 26.7 µM
GI50 (DMS 273 small cell lung): 15.7 µM
TGI (DMS 273 small cell lung): 29.6 µM
GI50 (EKVX NSCLC): 15.5 µM
TGI (EKVX NSCLC): 36.2 µM
GI50 (HCC-2998 colon): 19.4 µM
TGI (HCC-2998 colon): 34.3 µM
GI50 (HCT-116 colon): 19.3 µM
TGI (HCT-116 colon): 33.7 µM
GI50 (HCT-15 colon): 18.2 µM
TGI (HCT-15 colon): 32.6 µM
GI50 (HL-60(TB) leukemia): 7.65 µM
TGI (HL-60(TB) leukemia): 29.4 µM
GI50 (HOP-62 NSCLC): 23.3 µM
TGI (HOP-62 NSCLC): 68.6 µM
GI50 (HOP-92 NSCLC): 18.2 µM
TGI (HOP-92 NSCLC): 36.6 µM
GI50 (HT29 colon): 20.5 µM
TGI (HT29 colon): 38.3 µM
GI50 (IGROV1 ovarian): 20.2 µM
TGI (IGROV1 ovarian): 36.6 µM
GI50 (K-562 leukemia): 14.6 µM
TGI (K-562 leukemia): 65.8 µM
GI50 (KM12 colon): 23.2 µM
TGI (KM12 colon): 59.4 µM
GI50 (KM20L2 colon): 29.6 µM
TGI (KM20L2 colon): 73.3 µM
GI50 (LOX IMVI melanoma): 13.7 µM
TGI (LOX IMVI melanoma): 27.7 µM
GI50 (LXFL 529 NSCLC): 7.96 µM
TGI (LXFL 529 NSCLC): 20.5 µM
GI50 (M14 melanoma): 16.2 µM
TGI (M14 melanoma): 30.7 µM
GI50 (M19-MEL melanoma): 14.8 µM
TGI (M19-MEL melanoma): 29.2 µM
GI50 (MALME-3M melanoma): 7.93 µM
TGI (MALME-3M melanoma): 19.8 µM
GI50 (MOLT-4 leukemia): 17.2 µM
TGI (MOLT-4 leukemia): 56 µM
GI50 (NCI-H226 lung): 31 µM
TGI (NCI-H226 lung): > 100 µM
GI50 (NCI-H23 lung): 17.1 µM
TGI (NCI-H23 lung): 35.3 µM
GI50 (NCI-H460 lung): 33.5 µM
TGI (NCI-H460 lung): > 100 µM
GI50 (NCI-H522 lung): 3.14 µM
TGI (NCI-H522 lung): 11.8 µM
GI50 (OVCAR-3 ovarian): 16.7 µM
TGI (OVCAR-3 ovarian): 30.5 µM
GI50 (OVCAR-4 ovarian): 20.7 µM
TGI (OVCAR-4 ovarian): 37.9 µM
GI50 (OVCAR-5 ovarian): 21.3 µM
TGI (OVCAR-5 ovarian): 42.6 µM
GI50 (OVCAR-8 ovarian): 17.9 µM
TGI (OVCAR-8 ovarian): 36.8 µM
GI50 (RPMI-8226 leukemia): 7.2 µM
TGI (RPMI-8226 leukemia): 34.5 µM
GI50 (RXF 393 renal): 19.5 µM
TGI (RXF 393 renal): 36.7 µM
GI50 (RXF-631 renal): 15.4 µM
TGI (RXF-631 renal): 29.5 µM
GI50 (SF-295 CNS): 20.3 µM
TGI (SF-295 CNS): 38.1 µM
GI50 (SF-539 CNS): 18.6 µM
TGI (SF-539 CNS): 33.1 µM
GI50 (SK-MEL-2 melanoma): 14 µM
TGI (SK-MEL-2 melanoma): 28.5 µM
GI50 (SK-MEL-28 melanoma): 15.4 µM
TGI (SK-MEL-28 melanoma): 29.4 µM
GI50 (SK-MEL-5 melanoma): 17 µM
TGI (SK-MEL-5 melanoma): 34.4 µM
GI50 (SK-OV-3 ovarian): 24.4 µM
TGI (SK-OV-3 ovarian): 84.8 µM
GI50 (SN12C renal): 19.8 µM
TGI (SN12C renal): 35.3 µM
GI50 (SNB-19 CNS): 22.1 µM
TGI (SNB-19 CNS): 45 µM
GI50 (SNB-75 CNS): 22.5 µM
TGI (SNB-75 CNS): 58 µM
GI50 (SNB-78 CNS): 19.9 µM
TGI (SNB-78 CNS): 61.3 µM
GI50 (SR leukemia): 12.4 µM
TGI (SR leukemia): 41.7 µM
GI50 (SW-620 colon): 15.3 µM
TGI (SW-620 colon): 29.5 µM
GI50 (TK-10 renal): 18.9 µM
TGI (TK-10 renal): 33.3 µM
GI50 (U251 CNS): 15.9 µM
TGI (U251 CNS): 29.6 µM
GI50 (UACC-257 melanoma): 17.3 µM
TGI (UACC-257 melanoma): 32.4 µM
GI50 (UACC-62 melanoma): 14.1 µM
TGI (UACC-62 melanoma): 28 µM
GI50 (UO-31 renal): 19.4 µM
TGI (UO-31 renal): 35.5 µM
GI50 (XF 498 CNS): 17.9 µM
TGI (XF 498 CNS): 32.7 µM
